Entries after “also recorded” stand apart in the source; their conditions may differ.
Key:
BRAF V600E [1] = target: T1, BRAF V600E (Homo sapiens, UniProt P15056, V600E); assay: 14C-labeled acetoacetate binding assay (radiometric metabolite-protein interaction)
Experimental: (§1) BRAF wild type and mutant proteins were incubated with increasing concentrations of ^14C-labeled acetoacetate.
(§2) A series of radiometric metabolite-protein interaction analyses were performed using ^14C labeled acetoacetate incubated with purified BRAF variants in the presence and absence of DHAA.

BRAF V600D = BRAF V600D (Homo sapiens, UniProt P15056, V600D); assay: 14C-labeled acetoacetate binding assay; conditions: in the presence of 300 μM 14C-labeled acetoacetate
Experimental: as §1, §2

BRAF V600R = BRAF V600R (Homo sapiens, UniProt P15056, V600R); assay: 14C-labeled acetoacetate binding assay; conditions: in the presence of 300 μM 14C-labeled acetoacetate
Experimental: as §1, §2

BRAF V600E [2] = target: T1, BRAF V600E; assay: thermal melt shift assay, purified recombinant protein; format: binding
Experimental: Arrows in the panel indicate melting temperatures at 0 μM (left) and 400 μM (right).
(§3) Whether functional inhibition of acetoacetate would attenuate BRAF V600E tumor growth was examined. Dehydroacetic acid (DHAA) (FIG. 4A) is an inhibitory homologue of acetoacetate.

FLAG-tagged BRAF V600E = target: T2, FLAG-tagged BRAF V600E (Homo sapiens, UniProt P15056, V600E); assay: cellular thermal shift assay, lysates of transfected 293T cells; format: binding; conditions: 400 μM
T2 construct: FLAG; expressed in transfected cells; host or cells: 293T cells (lysates)
Source text: as §3

BRAF V600E [3] = target: T1, BRAF V600E; assay: BRAF V600E kinase activity (Vmax and Km), MEK1 as substrate; format: biochemical
Experimental: (§4) Whether DHAA inhibits BRAF V600E directly was examined. […] In contrast, DHAA had no effect on BRAF WT-MEK1 binding or MEK1 phosphorylation in a control experiment using purified BRAF WT incubated with MEK1 in the presence of acetoacetate (FIG. 4I left panel). […] This is physiologically consistent with the acetoacetate levels determined as approximately 300 μM in stable HMGCL knockdown A375 and A2058 cells.

BRAF V600E-MEK1 binding = BRAF V600E-MEK1 binding (Homo sapiens, UniProt P15056, V600E); assay: cell-free in vitro coupled protein-protein binding and kinase assay; format: biochemical
Experimental: as §4

BRAF WT-MEK1 binding = BRAF WT-MEK1 binding (Homo sapiens, UniProt P15056); assay: as above; format: biochemical; conditions: in the presence of acetoacetate
Experimental: as §4

[4] = test system: A375 cells expressing BRAF V600E; assay: melanoma cell treatment: proliferation, MEK1/ERK1/2 phosphorylation, BRAF-MEK1 binding; format: cell-based, human
[5] = test system: A2058 cells expressing BRAF V600E; assay: as above; format: cell-based, human
[6] = test system: SK-MEL-5 cells expressing BRAF V600E; assay: melanoma cell proliferation; format: cell-based
[7] = test system: WM-266-4 cells expressing BRAF V600D; assay: melanoma cell proliferation; format: cell-based
[8] = test system: Me1-ST cells expressing BRAF V600E; assay: immortalized melanocyte treatment: proliferation, MEK-ERK activation, BRAF-MEK1 binding; format: cell-based
[9] = test system: Me1-ST parental or control cells expressing BRAF WT or tBRAF; assay: as above; format: cell-based
[10] = test system: BRAF V600E-expressing human melanoma A375 cells; assay: A375 xenograft in nude mice; format: in vivo
[11] = test system: BRAF V600E-expressing human melanoma A2058 cells; assay: A2058 xenograft in nude mice; format: in vivo
Source text: Xenograft tumor growth and in nude mice inoculated with BRAF V600E-positive human melanoma A2058 fed with normal or high-fat diets followed by intraperitoneal injection with DHAA.

[12] = serum and tumor metabolite levels and body weight of xenograft mice; format: in vivo
[13] = chronic injection of DHAA to nude mice (tolerability); format: in vivo
hepatomas = conditions: rats fed 4-(methylamino)azobenzene; cited from earlier work
[14] = DHAA at 200 μM, acetoacetate at 300 μM
[15] = BRAF V600E pre-treated with acetoacetate (300 μM)
[16] = co-treatment with DHAA, high-fat diet
[17] = tumors harvested from xenograft mice

T1 sequence (P15056 whole entry V600E): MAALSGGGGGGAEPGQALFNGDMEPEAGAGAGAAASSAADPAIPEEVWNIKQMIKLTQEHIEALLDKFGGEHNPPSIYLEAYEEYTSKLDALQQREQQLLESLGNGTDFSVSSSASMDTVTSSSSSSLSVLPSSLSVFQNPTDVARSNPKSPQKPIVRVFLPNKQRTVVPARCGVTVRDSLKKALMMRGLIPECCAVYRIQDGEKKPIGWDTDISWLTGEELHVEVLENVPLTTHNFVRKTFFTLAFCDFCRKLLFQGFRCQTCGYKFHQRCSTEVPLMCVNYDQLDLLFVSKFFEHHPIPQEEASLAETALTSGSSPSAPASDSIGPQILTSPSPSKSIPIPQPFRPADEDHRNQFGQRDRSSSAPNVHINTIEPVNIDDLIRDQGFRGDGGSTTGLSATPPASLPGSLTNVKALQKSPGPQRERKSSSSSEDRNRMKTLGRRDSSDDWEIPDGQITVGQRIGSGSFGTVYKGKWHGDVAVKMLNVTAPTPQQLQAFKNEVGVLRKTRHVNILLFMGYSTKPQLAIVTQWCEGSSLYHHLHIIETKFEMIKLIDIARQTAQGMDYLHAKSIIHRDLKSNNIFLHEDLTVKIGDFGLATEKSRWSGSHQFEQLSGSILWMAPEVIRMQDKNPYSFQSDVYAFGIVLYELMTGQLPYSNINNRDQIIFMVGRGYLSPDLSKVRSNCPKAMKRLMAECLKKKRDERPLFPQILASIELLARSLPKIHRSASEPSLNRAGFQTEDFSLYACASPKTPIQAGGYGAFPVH
BRAF V600E-MEK1 binding, sequence (P15056 whole entry V600E): as above
BRAF WT-MEK1 binding, sequence (P15056 whole entry): as the sequence (P15056 whole entry V600E) above, with E600V counted along it
T2 sequence (P15056 whole entry V600E): as the sequence (P15056 whole entry V600E) above
BRAF V600D, sequence (P15056 whole entry V600D): as the sequence (P15056 whole entry V600E) above, with E600D counted along it
BRAF V600R, sequence (P15056 whole entry V600R): as the sequence (P15056 whole entry V600E) above, with E600R counted along it

CC(=O)c1c(O)oc(C)cc1=O [DHAA, 3-Acetyl-2-hydroxy-6-methyl-4H-pyran-4-one]
competition with acetoacetate for BRAF V600E binding (BRAF V600E [1]; BRAF V600E pre-treated with 14C-labeled acetoacetate, increasing concentrations of DHAA): competed with acetoacetate for BRAF V600E binding in a dose-dependent manner | block of acetoacetate binding by pre-treatment (BRAF V600E [1]; DHAA 200 μM pre-treatment, 14C-labeled acetoacetate up to 400 μM): sufficient to block acetoacetate binding | competition with acetoacetate for BRAF V600E binding (BRAF V600E [1]; [14]): sufficient to compete | Ki (BRAF V600E [1]; in the presence of 300 μM 14C-labeled acetoacetate): ~88 µM | binding ability of BRAF V600E mutant forms to acetoacetate (BRAF V600E [1]; treatment with DHAA, BRAF V600E and tBRAF V600E): significant decrease in binding ability | Ki (BRAF V600D): ~88 µM | Ki (BRAF V600R): ~91 µM | binding in thermal melt shift assay (BRAF V600E [2]): directly binds | affinity for BRAF V600E relative to acetoacetate (FLAG-tagged BRAF V600E): higher affinity than acetoacetate | binding in cellular thermal shift assay (FLAG-tagged BRAF V600E): bound only to BRAF V600E | activating effect of acetoacetate on BRAF V600E (increased Vmax, decreased Km) (BRAF V600E [3]; in the presence of acetoacetate (300 μM)): effectively reversed the activating effect of acetoacetate | BRAF V600E kinase activity (Vmax and Km) (BRAF V600E [3]; increasing concentrations of DHAA alone): did not affect BRAF V600E kinase activity | acetoacetate-enhanced MEK1 binding to BRAF V600E (BRAF V600E-MEK1 binding; [15]): effectively inhibited | phosphorylation of V600E-bound MEK1 (BRAF V600E-MEK1 binding; [15]): effectively inhibited | BRAF V600E-MEK1 binding and phosphorylation of MEK1 enhanced by acetoacetate (BRAF V600E-MEK1 binding; [14]): inhibit BRAF V600E-MEK1 binding and phosphorylation of MEK1 | BRAF WT-MEK1 binding (BRAF WT-MEK1 binding): had no effect | MEK1 phosphorylation (BRAF WT-MEK1 binding): had no effect | BRAF V600E-MEK1 association [4]: selectively inhibited | cell proliferation [4]: selectively inhibited cell proliferation; also recorded: selectively inhibits | phosphorylation of MEK1 and ERK1/2 [4]: selectively inhibited phosphorylation of MEK1 and ERK1/2 | BRAF V600E-MEK1 association [5]: selectively inhibited | cell proliferation [5]: selectively inhibited cell proliferation; also recorded: selectively inhibits | phosphorylation of MEK1 and ERK1/2 [5]: selectively inhibited phosphorylation of MEK1 and ERK1/2 | cell proliferation [6]: selectively inhibited cell proliferation | cell proliferation [7]: selectively inhibited cell proliferation | BRAF V600E-MEK1 binding [8]: selectively inhibited | MEK-ERK activation [8]: selectively inhibited | cell proliferation [8]: selectively inhibited | BRAF-MEK1 binding [9]: but not parental or control cells | high-fat diet-dependent enhancement of BRAF V600E-MEK1 binding in tumors ([10]; DHAA, high-fat diet): significantly attenuated | high-fat diet-dependent enhancement of cell proliferation rates (Ki67) in tumors ([10]; DHAA, high-fat diet): significantly attenuated | high-fat diet-dependent enhancement of phosphorylation of MEK1 and ERK1/2 in tumors ([10]; DHAA, high-fat diet): significantly attenuated | high-fat diet-enhanced tumor growth potential [10, 16]: effectively reversed the enhanced tumor growth potential | HMGCL expression in tumors ([10]; mouse, in vivo): without affecting HMGCL expression | BRAF V600E-MEK1 binding in tumors ([10]; single agent): reduced binding between BRAF V600E-MEK1 | cell proliferation rates in tumors (Ki67 IHC staining) ([10]; single agent): reduced cell proliferation rates | phosphorylation of MEK1 and ERK1/2 in tumors ([10]; single agent): selectively inhibited phosphorylation of MEK1 and ERK1/2 | xenograft tumor growth (growth rates, sizes, masses) ([10]; single agent, normal diet): effectively inhibited xenograft tumor growth rates, sizes and masses | high-fat diet-dependent enhancement of BRAF V600E-MEK1 binding in tumors ([11]; DHAA, high-fat diet): significantly attenuated | high-fat diet-dependent enhancement of cell proliferation rates (Ki67) in tumors ([11]; DHAA, high-fat diet): significantly attenuated | high-fat diet-dependent enhancement of phosphorylation of MEK1 and ERK1/2 in tumors ([11]; DHAA, high-fat diet): significantly attenuated | high-fat diet-enhanced tumor growth potential [11, 16]: effectively reversed the enhanced tumor growth potential; also recorded: reverses high-fat diet-enhanced BRAF V600E tumor growth | HMGCL expression in tumors ([11]; mouse, in vivo): without affecting HMGCL expression | BRAF V600E-MEK1 binding in tumors ([11]; single agent): reduced binding between BRAF V600E-MEK1 | cell proliferation rates in tumors (Ki67 IHC staining) ([11]; single agent): reduced cell proliferation rates | phosphorylation of MEK1 and ERK1/2 in tumors ([11]; single agent): selectively inhibited phosphorylation of MEK1 and ERK1/2 | xenograft tumor growth (growth rates, sizes, masses) ([11]; single agent, normal diet): effectively inhibited xenograft tumor growth rates, sizes and masses | body weight ([12]; effect of treatment): did not affect body weight | serum cholesterol levels ([12]; effect of treatment): did not affect; also recorded: had no effect | serum glucose levels ([12]; effect of treatment): did not affect; also recorded: had no effect | serum levels of 3HB (β-hydroxybutyrate) ([12]; effect of treatment): did not affect; also recorded: had no effect | serum levels of acetoacetate ([12]; effect of treatment): had no effect | acetoacetate levels in tumors [12, 17]: did not affect | β-hydroxybutyrate levels in tumors [12, 17]: did not affect | histopathological analyses and weights of diverse organs ([13]; 200 mg/kg/day intraperitoneally, ~4 weeks): did not cause notable differences | components of the gut microbiota ([13]; chronic treatment): altered proportions but no loss of any components | effect on the mouse gut microbiome ([13]; chronic treatment): had no obvious effect | total DNA amount extracted from bacteria in mouse feces ([13]; chronic treatment): unaltered total DNA amount | well-tolerated dose ([13]; intraperitoneally, ~4 weeks): 200 mg/kg/day | toxicity in vivo ([13]; mouse, in vivo): does not cause obvious toxicity in vivo | complete blood counts (CBC) or hematopoietic properties ([13]; representative A375 xenograft mice, compared to the water-treated group): did not alter | induction of hepatomas (hepatomas): inhibitory effect

— patent US10792274B2, “Dehydroacetic acid (DHAA) and derivative for uses in treating cancer” (Emory University, priority 2016, dated 2020)
